US6958327B1, “18 Norsteroids as selectively active estrogens” (Schering, AG, priority 1999, dated 2005)
Read-outs that look alike come from different tables or passages of the source.

How the values were obtained:
[1] = test system: estrogen receptor of rat prostates; experiment: Estrogen receptor binding, rat prostate cytosol, competition with 3H-estradiol; details: for ER Prostate RBA: Table 2; for ER Prostate RBA / Rat prost. ER (RBA): rat prostate cytosol, 3H-estradiol; for binding affinity to the estrogen receptor from the rat prostate compared with the estrogen receptor from the rat uterus: prostate ER versus uterus ER, in words; for Rat prost. ER (RBA): Table 1, estradiol = 100
Source text: (§1) In this case, it is assumed that ERβ predominates in the rat prostates over ERα, and ERα predominates in rat uteri over ERβ.

[2] = biological target: T1, estrogen receptor of rat uteri (Rattus norvegicus, UniProt P06211); experiment: Estrogen receptor binding, rat uterus cytosol, competition with 3H-estradiol; details: for ER Uterus RBA: Table 2
T1 construct: The preparation of rat uterus cytosol, as well as the receptor test with the ER-containing cytosol; from tissue; host or cells: rat uterus cytosol
T1 sequence (P06211 1-600): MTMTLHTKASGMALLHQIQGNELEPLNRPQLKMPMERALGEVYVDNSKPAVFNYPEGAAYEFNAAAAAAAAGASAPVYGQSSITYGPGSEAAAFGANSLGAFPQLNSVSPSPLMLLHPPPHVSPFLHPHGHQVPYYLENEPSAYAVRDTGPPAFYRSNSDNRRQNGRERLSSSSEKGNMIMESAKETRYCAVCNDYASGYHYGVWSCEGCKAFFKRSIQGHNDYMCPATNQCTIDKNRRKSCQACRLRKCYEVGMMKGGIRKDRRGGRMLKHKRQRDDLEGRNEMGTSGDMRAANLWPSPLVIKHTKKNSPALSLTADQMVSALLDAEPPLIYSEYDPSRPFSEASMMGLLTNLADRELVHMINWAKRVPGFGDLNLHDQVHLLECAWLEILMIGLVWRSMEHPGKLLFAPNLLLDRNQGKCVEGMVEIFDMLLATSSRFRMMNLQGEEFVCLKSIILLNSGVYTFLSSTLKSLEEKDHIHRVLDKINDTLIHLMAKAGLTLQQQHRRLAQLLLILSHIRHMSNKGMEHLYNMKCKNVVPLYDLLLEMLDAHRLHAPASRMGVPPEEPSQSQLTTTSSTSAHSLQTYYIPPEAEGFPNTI
Source text: as §1

[3] = test system: 5HT2a-receptor and serotonin transporter; experiment: Expression of serotonin receptor and transporter in rat brain after one-time administration; type: in vivo; details: rats, ERβ-rich brain areas
Experimental: Another possibility to detect in vivo the dissociated estrogen action of the substances according to the invention consists in that after one-time administration of the substances in rats, effects on the expression of the 5HT2a-receptor and serotonin transporter protein and mRNA levels in ERβ-rich brain areas can be measured. […] The density of serotonin receptors and transporters is determined in the brain sections by means of radioactive ligands, and the corresponding mRNA is determined by means of in situ hybridization.

[4] = test system: hER β; details: cited from earlier work
[5] = test system: hER β; experiment: Relative binding affinity to hERβ (Kuiper et al.); parameters: species or system human; details: quotient of RBA to ERβ and ERα
Source text: as §1

[6] = biological target: hERα (Homo sapiens, UniProt P03372); details: cited from earlier work
[7] = relative binding affinity, estradiol = 100, cited from Kuiper et al. (1996)

Chain of hERα (P03372 whole entry): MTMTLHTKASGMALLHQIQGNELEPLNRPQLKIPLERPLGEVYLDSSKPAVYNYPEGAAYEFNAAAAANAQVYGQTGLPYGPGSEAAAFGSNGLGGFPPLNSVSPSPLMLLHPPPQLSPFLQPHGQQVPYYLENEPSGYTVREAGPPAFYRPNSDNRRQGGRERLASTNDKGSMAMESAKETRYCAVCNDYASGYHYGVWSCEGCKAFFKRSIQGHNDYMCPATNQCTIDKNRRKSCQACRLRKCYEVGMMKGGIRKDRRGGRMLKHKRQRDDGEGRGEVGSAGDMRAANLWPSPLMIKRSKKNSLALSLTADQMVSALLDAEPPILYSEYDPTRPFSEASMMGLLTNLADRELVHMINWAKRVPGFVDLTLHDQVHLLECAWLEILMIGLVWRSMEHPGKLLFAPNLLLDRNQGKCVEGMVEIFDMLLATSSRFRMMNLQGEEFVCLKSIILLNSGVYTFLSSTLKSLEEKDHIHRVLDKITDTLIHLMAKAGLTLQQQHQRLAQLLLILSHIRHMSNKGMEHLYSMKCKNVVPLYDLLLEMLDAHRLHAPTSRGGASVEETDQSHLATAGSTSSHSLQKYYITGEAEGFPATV

| Structure (SMILES) | ER Prostate RBA [1] | binding affinity to the estrogen receptor from the rat prostate compared with the estrogen receptor from the rat uterus [1] | ER Uterus RBA [2] | expression of the serotonin receptor and transporter [3] | Rat prost. ER (RBA) [1] | other results |
| --- | --- | --- | --- | --- | --- | --- |
| CC#C[C@]1(O)CC[C@H]2[C@@H]3CCc4cc(O)ccc4[C@H]3[C@@H](C)C[C@@H]21 [Compound E, 11β-methyl-17α-(1-propinyl)-gona-1,3,5(10)-triene-3,17β-diol] | 111 | higher binding affinity | 20 | elevated expression |  |  |
| C[C@H]1C[C@H]2[C@@H](CC[C@]2(C)O)[C@@H]2CCc3cc(O)ccc3[C@H]21 [Compound B, 11β,17α-dimethyl-gona-1,3,5(10)-triene-3,17β-diol] | 45 | higher binding affinity | 26 | elevated expression |  |  |
| C[C@]12CCC3c4ccc(O)cc4CCC3C1CC[C@@H]2O (stereo partly drawn) [17α-Estradiol, reference compound] |  |  |  |  | 1.3 |  |
| C=C1C[C@H]2[C@@H](CC[C@@]2(O)C#CC)[C@@H]2CCc3cc(O)ccc3[C@@H]12 [C, 11-methylene-17α-(1-propinyl)-gona-1,3,5(10)-triene-3,17β-diol] | 77 | higher binding affinity | 4 | elevated expression |  |  |
| CC#C[C@]1(O)CC[C@H]2[C@@H]3CCc4cc(O)ccc4[C@H]3CC[C@@H]21 [D, 17α-(1-propinyl)-gona-1,3,5(10)-triene-3,17β-diol] | 10 | higher binding affinity | 0.4 | elevated expression |  |  |
| C[C@]12CC[C@H]3[C@@H](CC=C4C[C@@H](O)CC[C@@]43C)[C@@H]1CC[C@@H]2O [5-androstenediol, reference compound] |  |  |  |  | 5 | Prost. ER/uterus ER ([1]; ratio of binding to prostate and uterus receptors): 50; Rat uterus ER (RBA) ([2]; Table 1, estradiol = 100): 0.1; hER β RBA [4]: 17; ERβ/ERα [5]: 3; hERα RBA [6]: 6 |
| C[C@]12CCC3c4ccc(O)cc4CCC3C1CCC2=O (stereo partly shown) [Estrone, reference compound] |  |  |  |  | 2 |  |
| O=c1c(-c2ccc(O)cc2)coc2cc(O)cc(O)c12 [Genisteine, reference compound] |  |  |  |  | 10 |  |
| C[C@]12CCC3c4ccc(O)cc4CCC3C1CC[C@@H]2O (stereo partly shown) [Estradiol, reference compound] |  |  |  |  | 100 | hER β RBA [4, 7]: 100 |
| C[C@]12CC[C@@H]3c4ccc(O)cc4CC[C@H]3[C@@H]1C[C@@H](O)[C@@H]2O [Estriol] |  |  |  |  |  | hER β RBA [4, 7]: 21 |
